Paper PMC4667226 (2015)
One block for each compound: values may come before it.

Key:
[1] = test system: Tel7 (DNA, G4) TTAGGGT; test: fluorescence titration; details: K+ (100 mM KCl, 10 mM potassium phosphate; quadruplex annealing buffer), pH 7.0, 25 °C; for Kd1: site 1 of 2
[2] = test system: Tel22 (DNA, G4) AGGGTTAGGGTTAGGGTTAGGG; test: fluorescence titration; details: K+ (100 mM KCl, 10 mM potassium phosphate; quadruplex annealing buffer); pH 7.0, 25 °C; site 1 of 2
[3] = test system: c-myc (DNA, G4) TGAGGGTGGTGAGGGTGGGGAAGG; test: fluorescence titration; details: K+ (100 mM KCl, 10 mM potassium phosphate; quadruplex annealing buffer); pH 7.0, 25 °C; site 1 of 2
[4] = test system: Tel7 (DNA, G4) TTAGGGT; test: NMR titration, NOESY and restrained MD structure; details: K+; 298 K, H2O/D2O 9:1; stacks at T1pT2 and G6pT7; imino signals persist to 343 K versus lost at 323 K
[5] = test system: c-kit21up (DNA, G4) CGGGCGGGCGCGAGGGAGGGG; test: fluorescence titration; details: K+ (100 mM KCl, 10 mM potassium phosphate; quadruplex annealing buffer); pH 7.0, 25 °C; single site

Kd1 [1]: 38 nM
SMILES: C[C@@H]1O[C@@H](OC[C@H]2O[C@@H](Oc3c(-c4ccc(O)c(O)c4)oc4cc(O)cc(O)c4c3=O)[C@H](O)[C@@H](O)[C@@H]2O)[C@H](O)[C@H](O)[C@H]1O

Kd ([1]; same value under Kd1 and Kd2 (single binding pattern)): 26.5 µM
SMILES: O=c1c(-c2ccc(O)cc2)coc2cc(O)cc(O)c12

Kd1 [2]: 30.2 nM
Kd1 [3]: 138 nM
Kd1 [1]: 4.9 nM
Kd1 [5]: 1.13 µM
SMILES: O=c1c(O)c(-c2ccc(O)c(O)c2)oc2cc(O)cc(O)c12
binding [4]: yes

Kd1 [1]: 23 nM
SMILES: O=c1cc(-c2ccc(O)c(O)c2)oc2cc(O)cc(O)c12
